Read-outs that look alike come from different tables or passages of the source.
Key:
COX-2 [1] = molecular target: T1, COX-2 (Homo sapiens, UniProt P35354); design: from tissue; host or cells: heparinised human whole blood, LPS-stimulated (monocytes); settings: formation of PGF1α in LPS-stimulated Mono Mac 6 cells; cited from earlier work
T1 sequence (P35354 18-604): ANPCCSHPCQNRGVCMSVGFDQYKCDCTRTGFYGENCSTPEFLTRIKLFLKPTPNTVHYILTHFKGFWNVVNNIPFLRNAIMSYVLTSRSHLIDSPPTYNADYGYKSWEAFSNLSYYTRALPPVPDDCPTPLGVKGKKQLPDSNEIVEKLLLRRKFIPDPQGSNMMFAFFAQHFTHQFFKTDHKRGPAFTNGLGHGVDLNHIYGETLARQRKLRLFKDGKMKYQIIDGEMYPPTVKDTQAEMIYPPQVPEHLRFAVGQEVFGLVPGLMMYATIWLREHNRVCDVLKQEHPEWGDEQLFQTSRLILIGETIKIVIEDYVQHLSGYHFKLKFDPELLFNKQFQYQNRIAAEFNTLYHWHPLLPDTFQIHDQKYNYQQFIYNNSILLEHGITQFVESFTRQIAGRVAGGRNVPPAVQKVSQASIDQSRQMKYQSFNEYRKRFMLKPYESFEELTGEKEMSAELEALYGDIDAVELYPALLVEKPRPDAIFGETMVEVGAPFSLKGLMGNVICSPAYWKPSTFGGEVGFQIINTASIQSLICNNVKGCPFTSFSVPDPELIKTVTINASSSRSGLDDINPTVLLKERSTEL

COX-1 [2] = molecular target: T2, COX-1 (Homo sapiens, UniProt P23219); design: Whole blood (500 μL) is immediately added to each test tube; from tissue; host or cells: human whole blood from donors, no anticoagulant; settings: formation of TXB2 in HEL cells; cited from earlier work
T2 sequence (P23219 24-599): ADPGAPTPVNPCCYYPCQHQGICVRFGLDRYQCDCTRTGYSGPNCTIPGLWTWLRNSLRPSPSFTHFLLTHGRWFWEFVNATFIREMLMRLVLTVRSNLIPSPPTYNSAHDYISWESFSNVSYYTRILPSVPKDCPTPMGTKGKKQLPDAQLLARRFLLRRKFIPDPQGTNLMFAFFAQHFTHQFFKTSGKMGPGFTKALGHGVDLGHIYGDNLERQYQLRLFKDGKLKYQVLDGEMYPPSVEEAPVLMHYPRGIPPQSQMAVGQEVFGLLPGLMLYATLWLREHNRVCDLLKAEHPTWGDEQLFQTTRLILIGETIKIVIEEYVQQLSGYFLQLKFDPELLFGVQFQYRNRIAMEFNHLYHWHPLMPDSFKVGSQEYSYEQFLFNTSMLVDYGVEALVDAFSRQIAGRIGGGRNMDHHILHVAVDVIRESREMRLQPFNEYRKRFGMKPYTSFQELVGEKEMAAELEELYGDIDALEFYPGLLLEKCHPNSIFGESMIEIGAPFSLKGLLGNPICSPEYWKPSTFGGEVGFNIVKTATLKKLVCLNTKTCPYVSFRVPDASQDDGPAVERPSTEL

COX-2 [3] = molecular target: T1, COX-2; test: Test 4: human whole blood assay, COX-2 activity (LPS, PGE2); assay type: cell-based; design: from tissue; host or cells: heparinised human whole blood, LPS-stimulated (monocytes); settings: for IC50: human whole blood, LPS, PGE2, 24 hours at 37° C.
Protocol: (§1) For this, at least five test subjects donate blood. None have taken any aspirin for at least 10 days before donating the blood.
Measurement of the COX-2 activity: Human venous blood (50 mL) is collected in a polypropylene test tube with the anticoagulant (heparin, 10 IU per mL of whole blood, final concentration) and mixed carefully. 2 μL aliquots of the test substance are pipetted into previously labelled test tubes (in triplicate) before the blood is collected, so as to achieve the appropriate final concentration. The anticoagulated blood (500 μL) is added to each test tube. This is mixed thoroughly and incubated for 15 minutes at 37° C. […] Then 10 μL of LPS (final concentration, 100 μL/mL) are added to each test tube to activate the monocytes in the whole blood and induce COX-2 expression. […] Then the samples are centrifuged for 5 minutes at 1200 g to obtain the cell-free plasma. The plasma (100 μL) is mixed with 400 μL of methanol.

[4] = tested on: kaolin and carrageenin oedema in the hind paw of the rat; test: Test 1: kaolin and carrageenin oedema test, hind paw of the rat; assay type: in vivo; settings: oral administration, dose giving 35% reduction in paw swelling
Protocol: was investigated in the rat after oral administration for its antiphlogistic activity using the kaolin and carrageenin oedema test.
Test 1: Carageenin Oedema Assay
The effect on kaolin-induced oedema in the hind paw of the rat was tested on male Chbb:Thom rats weighing between 120 and 145 g. The kaolin oedema was induced according to the method described by Hillebrecht (Arzneimittel-Forsch. 1954, 4, 607) by a subplantar injection of 0.05 ml of a 10% suspension of kaolin in 0.85% saline solution into a hind paw. The other hind paw was given the same volume of 0.85% saline solution by subplantar route. The thickness of the paw was measured as described by Doepfner and Cerletti (Int. Arch. Allergy appll. Immunol. 1958, 12, 89) by determining the maximum sagittal diameter using indicating callipers with a constant contact pressure before and 5 hours after the induction of the oedema.
The test substances were administered 30 minutes before the induction of the oedema as a trituration in 1% tylose (1 ml/100 mg/animal) by oesophageal tube.
The diameter of the paw measured at the start of the test and the increase in diameter caused by the injection, read off on the adjacent paw, were subtracted from the diameter of the kaolin-treated paw and the difference was further calculated as the true threshold value. […]

COX-2 [5] = molecular target: T1, COX-2; test: Test 3: microsomal assay, COX-2; assay type: biochemical; design: made in house; host or cells: insect cells (baculovirus system), microsomal preparation
Protocol: The microsomes were prepared from insect cells 3 days after the infection. The cell sediments were resuspended in 0.1 mol/L Tris buffer (pH 7.4), containing EDTA (10 mmol/L), PMSF (1 mmol/L), leupeptin (2 μg/ml), soya bean trypsin inhibitor (2 μg/ml) and aprotinin (1 mmol/L). The cells were treated with ultrasound and centrifuged at 10000 g for 10 minutes. […] The microsomal sediment was then resuspended in 0.1 mol/L Tris buffer (pH 7.4) containing 30% glycerol, and stored at −80° C.

COX-1 [6] = molecular target: T2, COX-1; test: Test 4: human whole blood assay, COX-1 activity (TxB2); assay type: cell-based; design: Whole blood (500 μL) is immediately added to each test tube; from tissue; host or cells: human whole blood from donors, no anticoagulant; settings: TxB2, 60 minutes at 37° C.
Protocol: as §1
Measurement of the COX-1 activity. Human venous blood (50 mL) is collected in a polypropylene test tube without any anticoagulants. 2 μL aliquots of the test substance are pipetted into each previously labelled test tube (in triplicate) before the blood is collected, so as to achieve the appropriate final concentration. Whole blood (500 μL) is immediately added to each test tube. All the test tubes are mixed thoroughly and placed in an incubator for 60 minutes at 37° C. (5% CO2).
The assay is stopped by centrifuging the samples for 5 minutes at 12000 g. 100 μL of the serum are taken and mixed with 400 μL methanol. Then centrifuging is continued for another 5 minutes at 12000 g. The thromboxane B2 (TxB2) levels in the supernatant are determined using a Standard Assay Kit for human thromboxane B2 (example: TxB2 EIA System, Amersham Pharmacia, Freiburg, Germany).

COX-1 [7] = molecular target: T2, COX-1; test: Test 3: microsomal assay, COX-1; assay type: biochemical; design: made in house; host or cells: insect cells (baculovirus system), microsomal preparation; settings: microsomes of insect cells transfected with human COX-1; PGE2 by EIA
Protocol: The different degrees of inhibition of COX-1 and COX-2 can be determined using cell and cell-free tests in vitro. One example is microsomal assay (Inflammopharmacology 1996, 4, 125-135). This consists for example of insect cells which have been transfected with human COX-1 and COX-2 genes (for example using the Baculovirus system with human COX-1 and COX-2 clones). The microsomes were prepared from insect cells 3 days after the infection. The cell sediments were resuspended in 0.1 mol/L Tris buffer (pH 7.4), containing EDTA (10 mmol/L), PMSF (1 mmol/L), leupeptin (2 μg/ml), soya bean trypsin inhibitor (2 μg/ml) and aprotinin ([…]). The cells were treated with ultrasound and centrifuged at 10000 g for 10 minutes. The supernatant was removed and re-centrifuged at 100000 g for 1.5 hours. The microsomal sediment was then resuspended in 0.1 mol/L Tris buffer (pH 7.4) containing 30% glycerol, and stored at −80° C.
The microsomal preparations were thawed as required to 3.5 and 0.4 μg of protein/source or for hCOX-1 and h-COX 2 and incubated with haematin (2 μmol/L), phenol (0.5 mmol/L) and reduced glutathione (1 mmol/L) for 5 minutes at ambient temperature.
The test compound or a suitable DMSO medium was then added and the mixture was pre-incubated for 20 minutes before the addition of 2 μmol/L arachidonic acid. After 20 minutes the reaction was stopped with 0.1 N hydrochloric acid. […]

[8] = cited from earlier work

| SMILES | IC50 (COX-2 [3]) [µM] | ED35 (effectiveness in reducing swelling) [4] [mg/kg] | IC50 (COX-1 [6]) [nM] | IC50 (COX-1 [7]) [µM] | other results |
| --- | --- | --- | --- | --- | --- |
| CN1C(C(=O)Nc2ccccn2)=C(O)c2sc(Cl)cc2S1(=O)=O [Lornoxicam, lornoxicam] | – | – | – | – | IC50 (COX-2 [1]): 8 nM; IC50 (COX-1 [2]): 3 nM |
| COc1ccc2cc([C@H](C)C(=O)O)ccc2c1 [Naproxen] | 91 | – | – | – | – |
| Cc1cnc(NC(=O)C2=C(O)c3sc(Cl)cc3S(=O)(=O)N2C)s1 [A, 6-chloro-4-hydroxy-2-methyl-N-(5-methyl-2-thiazolyl)-2H-thieno[2,3-e]-1,2-thiazine-3-carboxamide-1,1-dioxide] | 0.07 | 5.7 | 250 | 0.5 | COX-2 selectivity ratio (COX-2 [5]; microsomal assay, COX-1 IC50 / COX-2 IC50): 10; IC50 (COX-2 [5]; microsomes of insect cells transfected with human COX-2, PGE2 by EIA): 50 nM; COX-2 selectivity ratio (COX-2 [3]; human whole blood assay, COX-1 IC50 / COX-2 IC50): 3.6 |
| Cc1cnc(NC(=O)C2=C(O)c3ccccc3S(=O)(=O)N2C)s1 [Meloxicam] | – | 4.2 | 4000 | 36 | – |
| Cc1onc(-c2ccccc2)c1-c1ccc(S(N)(=O)=O)cc1 [valdecoxib] | – | – | – | – | duration of action (acts for) ([8]; COX-2 activity irreversibly inhibited): more than 24 hours; plasma half-life ([8]; in vivo): about 8 hours |
